In PMC7187253 (Clinical Pharmacology in Drug Development, 2019):
Where two headings read alike, the source gives them in different places.

Key:
[1] = system: extracellular 5‐HT levels; settings: compared with sertraline; cited from earlier work
[2] = system: cardiac repolarization in healthy subjects; test: PK/PD exposure‐response analysis of QTcF; settings: for Estimated slope of the regression for ∆QTcF versus plasma concentration: separate PK/PD models for sertraline and N‐desmethylsertraline concentration
[3] = type: in vivo, human; settings: for MR (metabolite‐to‐parent ratio for AUC24), geometric mean (%CV): corrected for molecular weight; for Cmin, geometric mean (%CV): 0‐24 h after last dose; for AUC(0-t): AUClast
healthy subjects = test: Safety assessments; type: in vivo, human; settings: for Fatigue / Headache / Insomnia / TEAEs considered treatment related / Total TEAEs reported / Subjects reporting ≥1 AE: during treatment period; for Subjects reporting ≥1 AE: sertraline n = 52, moxifloxacin n = 50
[4] = cited from earlier work
Kv1.5 = settings: Chinese hamster ovary cells; cited from earlier work
CYP2C19 = settings: cited from earlier work
CYP2D6 = settings: cited from earlier work
CYP2C9 = settings: cited from earlier work
[5] = system: cardiac repolarization in healthy subjects
QTc interval = settings: cited from earlier work
[6] = ref Pfizer Inc, data on file, cited from earlier work
[7] = cited from earlier work; remark: listed apart in the source
CYP1A2 = settings: cited from earlier work
[8] = Day 1, sertraline 50 mg single dose
[9] = Day 1, sertraline 50 mg single dose, plasma, healthy subjects
[10] = Day 14, sertraline 400 mg/day multiple dose
[11] = 1 h after dosing on day 14, sertraline 400 mg/day
[12] = 2 h after dosing on day 14, sertraline 400 mg/day
[13] = 3 h after dosing on day 14, sertraline 400 mg/day
[14] = 4 h after dosing on day 14, sertraline 400 mg/day
[15] = 5 h after dosing on day 14, sertraline 400 mg/day
[16] = 6 h after dosing on day 14, sertraline 400 mg/day
[17] = 8 h after dosing on day 14, sertraline 400 mg/day
[18] = 12 h after dosing on day 14, sertraline 400 mg/day
[19] = 24 h after dosing on day 14, sertraline 400 mg/day
[20] = categorical analysis of maximum postdose QTcF
[21] = patients admitted for sertraline overdose (>200 mg)
[22] = human, plasma, 400 mg/day, arithmetic mean ± SD, Day 14, sertraline 400 mg/day multiple dose

## N[C@H]1CC[C@@H](c2ccc(Cl)c(Cl)c2)c2ccccc21 [N‐desmethylsertraline]
[1]
  Effect on extracellular 5‐HT levels: lack of effect
[2]
  Estimated slope of the regression for ∆QTcF versus plasma concentration: 0.036 ms/ng/mL
[3]; [8]
  AUC24, arithmetic mean ± SD: 79.03 ± 19.199 ng·h/mL
  AUC24, geometric mean (%CV): 76.87 (24) ng • h/mL
  Cmax, arithmetic mean ± SD: 4.428 ± 1.3189 ng/mL
  MR (metabolite‐to‐parent ratio for AUC24), arithmetic mean ± SD: 0.5493 ± 0.1743
  tmax, median (range): 12.0 (5.00‐23.9) h
  MR (metabolite‐to‐parent ratio for AUC24), geometric mean (%CV): 0.5222 (34)
[3]; [9]
  Cmax, geometric mean (%CV): 4.269 (27) ng/mL
[3]; Day 14, sertraline 400 mg/day (200 mg BID, only morning dose on day 14), multiple dose, plasma
  Cmax, geometric mean (%CV): 249.6 (23) ng/mL
[3]; [10]
  AUC24, arithmetic mean ± SD: 5342 ± 1109.5 ng·h/mL
  AUC24, geometric mean (%CV): 5227 (22) ng • h/mL
  AUClast, arithmetic mean ± SD: 13500 ± 3225.2 ng·h/mL
  AUClast, geometric mean (%CV): 13110 (25) ng • h/mL
  Cmin, arithmetic mean ± SD: 188.4 ± 39.567 ng/mL
  MR (metabolite‐to‐parent ratio for AUC24), arithmetic mean ± SD: 1.283 ± 0.3075
  tmax, median (range): 8.00 (1.07‐12.1) h
  Cmin, geometric mean (%CV): 184.1 (23) ng/mL
  MR (metabolite‐to‐parent ratio for AUC24), geometric mean (%CV): 1.248 (24)

## COc1c(N2C[C@@H]3CCCN[C@@H]3C2)c(F)cc2c(=O)c(C(=O)O)cn(C3CC3)c12 [moxifloxacin]
Healthy subjects
  Fatigue: 7 subjects
  Headache: 11 subjects
  Insomnia: 11 subjects
  TEAEs considered treatment related: 92
  Total TEAEs reported: 105
  Subjects reporting ≥1 AE: 42 subjects
[4]
  Population tmax: 3 h

## CN[C@H]1CC[C@@H](c2ccc(Cl)c(Cl)c2)c2ccccc21 [sertraline]
Kv1.5
  Effect on Kv1.5: voltage‐dependent inhibition
CYP2C19
  CYP2C19 inhibitor class: weak inhibitor
CYP2D6
  CYP2D6 inhibitor class: weak to moderate inhibitor
CYP2C9
  CYP2C9 inhibitor class: weak inhibitor
[5]; [11]
  QTcF, Least Squares Difference (Sertraline‐Placebo): 6.957 ms
  QTcF, Least Squares Mean: 414.299 ms
[5]; [12]
  QTcF, Least Squares Difference (Sertraline‐Placebo): 7.851 ms
  QTcF, Least Squares Mean: 415.625 ms
[5]; [13]
  QTcF, Least Squares Difference (Sertraline‐Placebo): 7.824 ms
  QTcF, Least Squares Mean: 416.465 ms
[5]; [14]
  QTcF, Least Squares Difference (Sertraline‐Placebo): 9.651 ms
  QTcF, Least Squares Mean: 418.252 ms
[5]; [15]
  QTcF, Least Squares Difference (Sertraline‐Placebo): 7.377 ms
  QTcF, Least Squares Mean: 411.285 ms
[5]; [16]
  QTcF, Least Squares Difference (Sertraline‐Placebo): 6.511 ms
  QTcF, Least Squares Mean: 408.985 ms
[5]; [17]
  QTcF, Least Squares Difference (Sertraline‐Placebo): 5.597 ms
  QTcF, Least Squares Mean: 408.732 ms
[5]; [18]
  QTcF, Least Squares Difference (Sertraline‐Placebo): 5.677 ms
  QTcF, Least Squares Mean: 411.019 ms
[5]; [19]
  QTcF, Least Squares Difference (Sertraline‐Placebo): 7.346 ms
  QTcF, Least Squares Mean: 414.294 ms
[5]; after dosing on day 14, sertraline 400 mg/day
  Time of longest placebo‐adjusted QTc interval: 4 h
[5]; [20]
  Subjects with absolute QTcF interval of ≥480 milliseconds: no participant
  Subjects with maximum increase from baseline in QTcF of ≥60 milliseconds: no participant
[5]; day 14 of sertraline treatment period
  Predose (time 0) QTcF, mean (standard deviation): 414.9 (14.89) milliseconds
Healthy subjects
  Fatigue: 17 subjects
  Headache: 18 subjects
  Insomnia: 22 subjects
  TEAEs considered treatment related: 238
  Total TEAEs reported: 251
  Subjects reporting ≥1 AE: 45 subjects
Healthy subjects; subject withdrawn, resolved the same day
  Severe AE / SAE (psychiatric decompensation): single severe AE
Healthy subjects; while receiving sertraline treatment
  Discontinued study treatment due to an AE (asthma): One additional subject
QTc interval; ECG database, dosing and concomitant medications unknown
  Incidence of maximum QTcB interval prolongation (males >450 ms; females >460 ms): 7.9%
QTc interval; clinical trials, sertraline 50‐200 mg/day, major depression
  Increase in QT/QTc interval: No statistically significant increase
QTc interval; meta‐analysis of study‐level trial data, sertraline 50‐200 mg/day
  Mean increase in QTc interval compared with placebo: 3.0 millisecond
QTc interval; [21]
  Incidence of QTc interval >500 ms: 6%
  Incidence of QTc interval greater than 440 ms: 40%
QTc interval; prospective, cross‐sectional population‐based study (n = 42)
  Mean QTcF increase: 1.7 milliseconds
[2]; at mean supratherapeutic Cmax of 234 ng/mL on day 14
  Predicted mean ∆∆QTcF: 8.93 milliseconds
[2]; at mean therapeutic maximum plasma sertraline concentration of 86 ng/mL (200 mg/day)
  Predicted mean ∆ΔQTcF (change from baseline QTcF adjusted for placebo): 3.57 milliseconds
[2]; at peak plasma sertraline concentration 223.5 ng/mL
  Predicted mean ∆∆QTcF: 8.55 milliseconds
[2]
  Estimated slope of the regression for ∆QTcF versus plasma concentration: 0.036 ms/ng/mL
[6]; day 14
  Cmax at 400 mg/day relative to Cmax at 200 mg/day: approximately 3 times
[6]; sertraline 400 mg/day, day 14, healthy subjects
  Mean Cmax: 282 ng/mL
[7]
  Maximum tolerated dose: 400 mg/day
[4]; hepatic impairment
  Increase in exposure with hepatic impairment: 1.7 fold
[3]; [9]
  Cmax, geometric mean (%CV): 11.39 (37) ng/mL
[3]; [10]
  Cmin, arithmetic mean ± SD: 146.1 ± 57.093 ng/mL
  Rac (observed accumulation ratio of AUC), arithmetic mean ± SD: 3.71 ± 0.82
  Rac (observed accumulation ratio of AUC), geometric mean (%CV): 3.62 (22.79)
  Cmin, geometric mean (%CV): 135.3 (43) ng/mL
[3]; human, plasma, 50 mg
  Tmax: 5.06 h
[3]; human, plasma, 50 mg, AUC24, arithmetic mean ± SD, Day 1, sertraline 50 mg single dose
  AUC: 162 ± 50.3 ng·h/mL
[3]; human, plasma, 50 mg, AUC24, geometric mean (%CV), Day 1, sertraline 50 mg single dose
  AUC: 154 ng·h/mL
[3]; human, plasma, 50 mg, arithmetic mean ± SD, Day 1, sertraline 50 mg single dose
  Cmax: 12.1 ± 4.34 ng/mL
[3]; human, plasma, 50 mg, geometric mean (%CV), Day 1, sertraline 50 mg single dose, plasma, healthy subjects
  Cmax: 11.4 ng/mL
[3]; human, plasma, 400 mg/day
  concentration at 4 h: 213 ng/mL
[3]; human, plasma, 400 mg/day, AUC24, arithmetic mean ± SD, Day 14, sertraline 400 mg/day multiple dose
  AUC: 4650 ± 1580 ng·h/mL
[3]; human, plasma, 400 mg/day, AUC24, geometric mean (%CV), Day 14, sertraline 400 mg/day multiple dose
  AUC: 4390 ng·h/mL
[3]; [22]
  AUC(0-t): 9190 ± 3720 ng·h/mL
  Cmax: 246 ± 80.6 ng/mL
[3]; human, plasma, 400 mg/day, geometric mean (%CV), Day 14, sertraline 400 mg/day multiple dose
  AUC(0-t): 8490 ng·h/mL
[3]; human, plasma, 400 mg/day, geometric mean (%CV), Day 14, sertraline 400 mg/day (200 mg BID, only morning dose on day 14), multiple dose, plasma
  Cmax: 234 ng/mL
CYP1A2
  CYP1A2 inhibitor class: weak inhibitor
